Test results from publication PMC9655119, “Sustained Activation of CLR/RAMP Receptors by Gel-Forming Agonists” (International Journal of Molecular Sciences, 2022).

Experiments:
[1] = Microrheology viscosity assay (Rheosense viscometer); assay type: physicochemical; conditions: 5% peptide solution in 5% glucose
Method: We initially determined the gel-forming capability of peptides qualitatively based on a visual examination of the gel solution using a tube-tapping method. Once we have a rough estimate of the gel-forming capability, we quantitatively determine the viscosity of select peptides using a Rheosense viscometer (Rheosense Inc.; http://www.rheosense.com, accessed on 1 December 2019). In the visual assay, aliquots of peptides were dissolved in an aqueous solution (i.e., de-ionized water, saline, or 5% glucose solution). The peptide that dissolves instantly and stays as a clear solution without obvious macroscopic change in viscosity at 20 min after mixing was considered soluble. If macroscopic particles of peptides remained in the solution for 20 min after mixing, the peptide was considered insoluble. […] In addition, we quantitatively determined the viscosity of Analog C-6 and control peptides using a viscometer. The Rheosense microrheology viscometer uses a “chip” flow channel to quantify the viscosity of a solution as small as 50 μL. After loading the aqueous solution, the sample was injected through the flow channel with multiple pressure sensors, and the rheological properties were determined based on the standard principles of rheometry.

[2] = Passage of peptide molecules through Centricon filters; assay type: physicochemical
Method: To evaluate whether gel formation reduces the movement of peptide molecules in solution, we used the Centricon® filters (Millipore) to separate samples and the carriers based on their molecular mass. The sample is monomeric peptide, and the carrier is the self-assembled gel. […] Ten minutes later, the solution was diluted to the 0.1% level, and aliquots of the samples were dispensed into separate Centricon columns (30,000 MW cutoff). The monomeric peptides and gel molecules were separated by centrifugation for 15 min (2000× g). The level of peptide in the elutes was determined by specific EIAs (Phoenix Pharmaceuticals Inc., Burlingame, CA, USA).

[3] = Release of Analog C-6 from the gel solution in vivo (single-dose pharmacokinetics); parameters: species or system Sprague–Dawley rats; conditions: plasma
Method: Single-dose pharmacokinetics of the Analog C-6 gel solution was investigated in male Sprague–Dawley rats. Rats received a gel solution via the subcutaneous route, and blood samples were collected at pre-dose, 8 h, 1, 2, 4, and 8 days via a catheter that had been cannulated to the jugular vein. Plasma was obtained by centrifugation, and the peptide level in samples was determined by specific ADM EIA (Phoenix Pharmaceuticals Inc.).

human CLR/RAMP2 = molecular target: T1, human CLR/RAMP2 (Homo sapiens, UniProt O60895+Q16602); assay: CLR/RAMP2 receptor-activation assay (PathHunter β-Arrestin); assay type: cell-based; conditions: for Emax: percentage of positive control ADM1-52, read-out: CLR/RAMP2 Max Activity
T1 construct: host or cells: CHO-K1 cells (PathHunter β-Arrestin cell line)
Method: (§1) The bioactivity of peptide analogs was studied using CLR/RAMP1, CLR/RAMP2, and CLR/RAMP3 assays by DiscoveRx (Fremont, CA, USA) in cells that stably express human CLR/RAMP1 (1321N1 cells), CLR/RAMP2 (CHO-K1 cells), or CLR/RAMP3 (CHO-K1 cells). The dose-dependent stimulatory effect of agonists was studied in duplicate, at 10 different concentrations. Determination of the half-maximal effective concentration (EC50) was performed using a 10-point dose-response curves. The starting concentration was 1.0 μM, and it was serially diluted 3-fold, in DMSO.
In this assay, the CLR was fused in frame with a small enzyme donor fragment ProLink™ (PK). The receptor was co-expressed with a fusion protein of β-arrestin and an N-terminal deletion mutant of β-galactosidase (i.e., enzyme acceptor). Activation of the CLR/RAMP2 receptor stimulated the binding of β-arrestin to the PK-tagged receptor and led to an increase in enzyme activities which can then be measured with the PathHunter detection reagents. PathHunter cell lines were seeded in a total volume of 20 μL into 384-well microplates and incubated at 37 °C prior to the assay. Intermediate dilution of samples was performed to generate 5X samples in the assay buffer. A 5 μL aliquot of 5X sample was added to cells and incubated at 37 °C for 90 min. Vehicle concentration was 1%.

human CLR/RAMP1 = molecular target: T2, human CLR/RAMP1 (Homo sapiens, UniProt O60894+Q16602); assay: CLR/RAMP1 receptor-activation assay (DiscoverX cAMP Hunter, HitHunter cAMP XS+); assay type: cell-based; conditions: for EC50: 1321N1 cells stably expressing human CLR/RAMP1, cAMP read-out, 10-point dose-response in duplicate, start 1.0 μM, 3-fold serial dilution in DMSO; for Emax: percentage of positive control β-CGRP, read-out: CLR/RAMP1 Max Activity
T2 construct: host or cells: 1321N1 cells (cAMP Hunter cell line)
Method: as §1
Cells were seeded in a total volume of 20 μL into 384-well microplates, and the activity was determined using the DiscoverX HitHunter cAMP XS + assay. Before the assay, media was aspirated from cells and replaced with 15 μL 2:1 HBSS/10 mM Hepes: cAMP XS + Ab reagent. Intermediate dilution of samples was performed to generate 4X sample in assay buffer, and 5 μL of the 4X sample was added to cells and incubated at 37°C. Vehicle concentration was 1%.
The chemiluminescent signal was read with a PerkinElmer instrument.

[4] = system: primary human lymphatic microvascular endothelial (HLME) cells; assay: HLME cell survival (MTT assay); assay type: cell-based; conditions: 30, 100, 300 nmoles/L, medium with 0.1% FBS, 72 h, quintuplicate samples
Method: (§2) Primary human lymphatic microvascular endothelial cells (HLME cells; Cell Applications, Inc., San Diego, CA, USA) were maintained in a microvascular endothelial cell growth medium supplemented with 10% fetal bovine serum (FBS). […] After 72-h incubation, cell viability was determined with the 3-(4,5-dimethylthiazol-2-yl)-2,5-diphenyltetrazolium bromide (MTT) assay (Promega). To evaluate the effects on endothelial cell survival, HLME cells were treated with different concentrations of the agonist or controls (30, 100, and 300 nmoles/L) and cultured in a basal medium with 0.1% FBS for 72 h. Cell viability was then assayed with the MTT assay.

[5] = system: primary human lymphatic microvascular endothelial (HLME) cells; assay: HLME cell proliferation (MTT assay); assay type: cell-based; conditions: 30, 100, 300 nmoles/L, medium with 2% FBS, 72 h, quintuplicate samples
Method: as §2

T2 sequence (Q16602 23-461): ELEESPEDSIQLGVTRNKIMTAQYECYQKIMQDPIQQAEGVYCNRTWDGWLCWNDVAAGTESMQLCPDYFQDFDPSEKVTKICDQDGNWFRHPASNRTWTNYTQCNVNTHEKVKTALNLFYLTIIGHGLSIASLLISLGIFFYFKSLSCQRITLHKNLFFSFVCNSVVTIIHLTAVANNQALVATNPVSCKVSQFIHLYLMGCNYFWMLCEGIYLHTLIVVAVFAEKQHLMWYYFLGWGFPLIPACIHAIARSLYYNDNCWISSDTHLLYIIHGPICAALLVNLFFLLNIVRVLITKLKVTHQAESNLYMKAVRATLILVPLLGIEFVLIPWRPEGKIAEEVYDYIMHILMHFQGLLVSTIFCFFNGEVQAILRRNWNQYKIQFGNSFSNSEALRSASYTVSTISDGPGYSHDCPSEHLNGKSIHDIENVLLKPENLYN
T2 sequence (O60894 27-148): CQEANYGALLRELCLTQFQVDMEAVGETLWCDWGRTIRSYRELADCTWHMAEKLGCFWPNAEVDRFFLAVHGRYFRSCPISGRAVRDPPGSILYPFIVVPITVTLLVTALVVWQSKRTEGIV
T1 sequence (Q16602 23-461): as the sequence (Q16602 23-461) above
T1 sequence (O60895 43-175): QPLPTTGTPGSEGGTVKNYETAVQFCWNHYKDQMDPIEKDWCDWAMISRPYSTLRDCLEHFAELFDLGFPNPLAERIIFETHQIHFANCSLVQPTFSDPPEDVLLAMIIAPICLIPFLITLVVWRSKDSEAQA

## adrenomedullin [ADM, reference compound]
[1]
  viscosity compared with water: significantly higher than that of water
[2]; Centricon 30,000 MW cutoff, 2000× g 15 min, 5% glucose, samples diluted to 0.1% after 10 min, CGRP or ADM EIA, triplicate
  peptide level in Centricon elute, 5% and 20% solution groups versus 0.1% solution: lower than that of the 0.1% solution group

## CCCCCCCCCCCCCCCC(=O)NCCCC[C@H](N)C(=O)NCC(=O)N[C@H]1CSSC[C@@H](C(=O)N[C@H](C(=O)N[C@H](C(=O)N[C@@H](CCC(N)=O)C(=O)N[C@@H](CCCCN)C(=O)N[C@@H](CC(C)C)C(=O)N[C@@H](C)C(=O)N[C@@H](Cc2c[nH]cn2)C(=O)N[C@@H](CCC(N)=O)C(=O)N[C@H](C(=O)N[C@@H](Cc2ccc(O)cc2)C(=O)N[C@@H](CCC(N)=O)C(=O)N[C@@H](Cc2ccccc2)C(=O)N[C@H](C(=O)N[C@@H](CC(=O)O)C(=O)N[C@@H](CCCCN)C(=O)N[C@@H](CC(=O)O)C(=O)N[C@@H](CCCCN)C(=O)N[C@@H](CC(=O)O)C(=O)N[C@@H](CC(N)=O)C(=O)N[C@H](C(=O)N[C@@H](C)C(=O)N2CCC[C@H]2C(=O)N[C@@H](CCCNC(=N)N)C(=O)N[C@@H](CO)C(=O)N[C@@H](CCCCN)C(=O)N[C@H](C(=O)N[C@@H](CO)C(=O)N2CCC[C@H]2C(=O)N[C@@H](CCC(N)=O)C(=O)NCC(=O)N[C@@H](Cc2ccc(O)cc2)C(N)=O)[C@@H](C)CC)C(C)C)[C@@H](C)O)[C@@H](C)CC)C(C)C)[C@@H](C)O)NC(=O)[C@H]([C@@H](C)O)NC(=O)CNC(=O)[C@H](Cc2ccccc2)NC(=O)[C@H](CCCNC(=N)N)NC1=O [Analog C-6]
[3]; male Sprague–Dawley rats, s.c., 32 mg in 16% gel solution, ADM EIA, n = 3
  time during which circulating level was significantly increased: 8 to 48 h
[3]; male, Sprague-Dawley, rat, sc, 32 mg, read-out: time of peak circulating peptide level
  Tmax: 8 h
Human CLR/RAMP2; CHO-K1 cells stably expressing human CLR/RAMP2, β-arrestin recruitment, 90 min at 37 °C, 10-point dose-response in duplicate, start 1.0 μM, 3-fold dilution in DMSO
  EC50: 2.8 nM
Human CLR/RAMP2
  Emax: 87%
[2]; 0.1% peptide in saline
  solubility in saline solution: low solubility
Human CLR/RAMP1
  EC50: 24 nM
  Emax: 78%

## CC[C@H](C)[C@H](NC(=O)[C@H](CCC(N)=O)NC(=O)[C@H](Cc1c[nH]cn1)NC(=O)[C@H](C)NC(=O)[C@H](CC(C)C)NC(=O)[C@H](CCCCN)NC(=O)[C@H](CCC(N)=O)NC(=O)[C@@H](NC(=O)[C@@H](NC(=O)[C@@H]1CSSC[C@H](NC(=O)CNC(=O)[C@H](Cc2ccccc2)NC(=O)[C@H](CO)NC(=O)[C@H](CCCNC(=N)N)NC(=O)[C@H](CC(C)C)NC(=O)CNC(=O)[C@H](CCC(N)=O)NC(=O)[C@H](Cc2ccccc2)NC(=O)[C@H](CC(N)=O)NC(=O)[C@H](CC(N)=O)NC(=O)[C@H](CCSC)NC(=O)[C@H](CO)NC(=O)[C@H](CCC(N)=O)NC(=O)[C@H](CCCNC(=N)N)NC(=O)[C@@H](N)Cc2ccc(O)cc2)C(=O)N[C@@H](CCCNC(=N)N)C(=O)N[C@@H](Cc2ccccc2)C(=O)NCC(=O)N[C@@H]([C@@H](C)O)C(=O)N1)[C@@H](C)O)C(C)C)C(=O)N[C@@H](Cc1ccc(O)cc1)C(=O)N[C@@H](CCC(N)=O)C(=O)N[C@@H](Cc1ccccc1)C(=O)N[C@H](C(=O)N[C@@H](CC(=O)O)C(=O)N[C@@H](CCCCN)C(=O)N[C@@H](CC(=O)O)C(=O)N[C@@H](CCCCN)C(=O)N[C@@H](CC(=O)O)C(=O)N[C@@H](CC(N)=O)C(=O)N[C@H](C(=O)N[C@@H](C)C(=O)N1CCC[C@H]1C(=O)N[C@@H](CCCNC(=N)N)C(=O)N[C@@H](CO)C(=O)N[C@@H](CCCCN)C(=O)N[C@H](C(=O)N[C@@H](CO)C(=O)N1CCC[C@H]1C(=O)N[C@@H](CCC(N)=O)C(=O)NCC(=O)N[C@@H](Cc1ccc(O)cc1)C(N)=O)[C@@H](C)CC)C(C)C)[C@@H](C)O [ADM1-52]
[4]
  effect on HLME cell survival: minimal effects
[5]
  effect on HLME cell proliferation: minimal effects
Human CLR/RAMP1
  Emax: 63%

## CC[C@H](C)[C@H](NC(=O)[C@H](CCC(N)=O)NC(=O)[C@H](Cc1c[nH]cn1)NC(=O)[C@H](C)NC(=O)[C@H](CC(C)C)NC(=O)[C@H](CCCCN)NC(=O)[C@H](CCC(N)=O)NC(=O)[C@@H](NC(=O)[C@@H](NC(=O)[C@@H]1CSSC[C@H](NC(=O)CNC(=O)[C@@H](N)Cc2ccccc2)C(=O)N[C@@H](CCCNC(=N)N)C(=O)N[C@@H](Cc2ccccc2)C(=O)NCC(=O)N[C@@H]([C@@H](C)O)C(=O)N1)[C@@H](C)O)C(C)C)C(=O)N[C@@H](Cc1ccc(O)cc1)C(=O)N[C@@H](CCC(N)=O)C(=O)N[C@@H](Cc1ccccc1)C(=O)N[C@H](C(=O)N[C@@H](CC(=O)O)C(=O)N[C@@H](CCCCN)C(=O)N[C@@H](CC(=O)O)C(=O)N[C@@H](CCCCN)C(=O)N[C@@H](CC(=O)O)C(=O)N[C@@H](CC(N)=O)C(=O)N[C@H](C(=O)N[C@@H](C)C(=O)N1CCC[C@H]1C(=O)N[C@@H](CCCNC(=N)N)C(=O)N[C@@H](CO)C(=O)N[C@@H](CCCCN)C(=O)N[C@H](C(=O)N[C@@H](CO)C(=O)N1CCC[C@H]1C(=O)N[C@@H](CCC(N)=O)C(=O)NCC(=O)N[C@@H](Cc1ccc(O)cc1)C(N)=O)[C@@H](C)CC)C(C)C)[C@@H](C)O [ADM14-52, reference compound]
Human CLR/RAMP2
  Emax: 102%
[4]
  effect on HLME cell survival: minimal effects
[5]
  effect on HLME cell proliferation: minimal effects
Human CLR/RAMP1
  EC50: > 100 nM
  Emax: 69%
